The record followed here is US20250034216A1, “STEREOSELECTIVE COVALENT LIGANDS FOR ONCOGENIC AND IMMUNOLOGICAL PROTEINS” (The Scripps Research Institute, priority 2021, published 2025).

The target of one assay is T1, PAFAH2_C72 (Homo sapiens, UniProt Q99487).
T1 construct: endogenous in cells; host or cells: 22Rv1
The assay can be described thus: IA-DTB cysteine engagement. As to conditions: 22Rv1 cells, 20 μM probe, 1 h, relative to DMSO. The format is binding. The procedure, abridged:
(§1)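 Competitive chemoproteomics: residual cysteine reactivity toward IA-DTB in lysates from probe-treated cells was quantified by TMT reporter ions relative to DMSO-treated controls. Replicates sharing cell line, probe, concentration and duration were averaged.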

A further assay addresses T2, VWA5B2_C1040 (Homo sapiens, UniProt Q8N398).
T2 construct: endogenous in cells; host or cells: 22Rv1
T2 sequence (Q8N398 1-1242): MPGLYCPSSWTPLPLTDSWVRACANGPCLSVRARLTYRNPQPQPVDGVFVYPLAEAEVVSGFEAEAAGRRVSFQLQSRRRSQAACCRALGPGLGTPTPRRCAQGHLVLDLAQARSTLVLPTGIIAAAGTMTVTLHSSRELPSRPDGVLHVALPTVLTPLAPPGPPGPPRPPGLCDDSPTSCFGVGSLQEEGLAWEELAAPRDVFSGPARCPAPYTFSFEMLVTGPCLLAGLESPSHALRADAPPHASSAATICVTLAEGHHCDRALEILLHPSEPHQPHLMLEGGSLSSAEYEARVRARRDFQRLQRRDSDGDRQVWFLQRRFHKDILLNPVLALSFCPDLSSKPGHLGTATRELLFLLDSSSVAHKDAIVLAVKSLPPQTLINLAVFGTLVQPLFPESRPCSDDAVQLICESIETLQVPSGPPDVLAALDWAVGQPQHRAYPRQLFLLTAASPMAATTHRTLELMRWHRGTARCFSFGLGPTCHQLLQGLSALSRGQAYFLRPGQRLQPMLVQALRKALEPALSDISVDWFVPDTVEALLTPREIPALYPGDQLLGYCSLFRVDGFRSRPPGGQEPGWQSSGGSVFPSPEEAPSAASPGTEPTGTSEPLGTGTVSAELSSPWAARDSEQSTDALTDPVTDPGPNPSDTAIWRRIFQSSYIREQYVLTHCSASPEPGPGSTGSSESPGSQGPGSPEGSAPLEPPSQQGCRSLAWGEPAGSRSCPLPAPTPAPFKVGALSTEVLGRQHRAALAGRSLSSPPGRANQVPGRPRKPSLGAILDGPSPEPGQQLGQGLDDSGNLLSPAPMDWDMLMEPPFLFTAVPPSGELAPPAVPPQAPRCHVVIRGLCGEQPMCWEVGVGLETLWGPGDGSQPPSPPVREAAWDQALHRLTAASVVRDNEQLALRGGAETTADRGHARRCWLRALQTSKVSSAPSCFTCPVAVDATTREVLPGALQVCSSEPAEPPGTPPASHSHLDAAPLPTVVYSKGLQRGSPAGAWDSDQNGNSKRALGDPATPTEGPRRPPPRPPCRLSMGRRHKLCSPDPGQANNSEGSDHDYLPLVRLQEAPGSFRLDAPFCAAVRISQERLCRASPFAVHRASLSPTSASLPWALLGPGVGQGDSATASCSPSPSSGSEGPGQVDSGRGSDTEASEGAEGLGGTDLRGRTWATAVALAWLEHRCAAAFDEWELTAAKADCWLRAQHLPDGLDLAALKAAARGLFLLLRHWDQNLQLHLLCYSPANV
Nature of the assay: IA-DTB cysteine engagement. As to conditions: 22Rv1 cells, 20 μM probe, 1 h, relative to DMSO. The class given is binding. The method, boiled down: as §1

For `C=CC(=O)N1C[C@@H](c2ccc(Br)cc2)[C@H]1C(=O)Nc1cccc2cccnc12` [MY-1A, (2S,3R)-1-acryloyl-3-(4-bromophenyl)-N-(quinolin-8-yl)azetidine-2-carboxamide], the “% engagement PAFAH2_C72” value on PAFAH2_C72 is 61.75%. On VWA5B2_C1040, the “% engagement VWA5B2_C1040” value came out at 76.5%.

On to `C=CC(=O)N1C[C@H](c2ccc(Br)cc2)[C@@H]1C(=O)Nc1cccc2cccnc12` [MY-1B, (2R,3S)-1-acryloyl-3-(4-bromophenyl)-N-(quinolin-8-yl)azetidine-2-carboxamide], for which the “% engagement PAFAH2_C72” value at PAFAH2_C72 was determined as 61%. Besides, the “% engagement VWA5B2_C1040” value on VWA5B2_C1040 was determined as 76.25%.

As to `C=CC(=O)N1C[C@H](c2ccc(Br)cc2)[C@H]1C(=O)Nc1cccc2cccnc12` [MY-3A, (2S,3S)-1-acryloyl-3-(4-bromophenyl)-N-(quinolin-8-yl)azetidine-2-carboxamide], the “% engagement PAFAH2_C72” value on PAFAH2_C72 is given as 56.75%. Further, on VWA5B2_C1040, the “% engagement VWA5B2_C1040” value stood at 51.5%.

For `C=CC(=O)N1C[C@H](c2ccc(Br)cc2)[C@H]1C(=O)Nc1cccc2cccnc12` [MY-3B, (2S,3S)-1-acryloyl-3-(4-bromophenyl)-N-(quinolin-8-yl)azetidine-2-carboxamide], the “% engagement PAFAH2_C72” value on PAFAH2_C72 worked out at 81%. Further, the “% engagement VWA5B2_C1040” value on VWA5B2_C1040 was found to be 74.25%.
